These results are taken from PubChem BioAssay AID1996.

Converted amounts (≈) assume the structure as drawn.

The conditions of the data set: buffer; pH 7.4; 200.0 µM.
Consider `CN(CC(=O)Nc1sccc1C(N)=O)S(=O)(=O)c1ccc(Cl)cc1`, for which the kinetic solubility – broadly, solubility judged after dilution from a stock solution rather than from solid – was 8.7 µg/mL (≈ 22.4 µM).
As for `COc1cccc(NC(=O)N2CCc3ccccc3C2)c1`, the kinetic solubility was > 42.4 µg/mL.
Next, `O=C1COc2ccccc2N1Cc1ccc(Cl)cc1`: 10.3 µg/mL (≈ 37.6 µM).
With `O=C(COc1ccc(F)cc1Br)NCC1(N2CCCCC2)CCCCC1` the figure was 55 µg/mL (≈ 129 µM); with `CCC(=O)c1cn(CCOc2ccccc2OC)c2ccccc12`, 2.2 µg/mL (≈ 6.8 µM); with `CNS(=O)(=O)c1cccc(C(=O)NCC(C)(C)N2CCCCC2)c1`, 48.8 µg/mL (≈ 138 µM).
Next, `CC(C)[C@H](NS(=O)(=O)c1ccccc1F)C(=O)OCC(=O)Nc1cccc(S(N)(=O)=O)c1`: > 73.1 µg/mL; `Cc1ccc(NC(=O)c2cccs2)cc1NC(=O)c1ccc(F)cc1`: 2 µg/mL (≈ 5.64 µM).
In the case of `C=CCNC(=S)N1CCN(C2CCCCC2)CC1`, the kinetic solubility was > 40.1 µg/mL.
Next, `O=C1CCC(=O)N1CC(=O)N1CCCc2ccccc21`: 28.5 µg/mL (≈ 105 µM); `N#C/C(=C\c1ccc(O)cc1)C(=O)N1CCCC1`: 30.1 µg/mL (≈ 124 µM); `Cc1nsc(Nc2ccccc2)c1C#N`: 7.7 µg/mL (≈ 35.8 µM).
Compound `O=C(COC(=O)CNC(=O)c1ccccc1Cl)NC1CC1` showed a kinetic solubility of 37.4 µg/mL (≈ 120 µM).
Next, `O=C(CNC(=O)c1ccc(Br)o1)NCC1COc2ccccc2O1` (configuration not stated): > 59.3 µg/mL; `CC(C)Oc1ccc(OCCn2c(=S)[nH]c3c(N)ncnc32)cc1`: 45.2 µg/mL (≈ 131 µM); `O=C(CN1C(=O)COc2ccccc21)Nc1ccccc1F`: 21.4 µg/mL (≈ 71.3 µM).
With `COc1ccc(Nc2nc(-c3ccccc3O)nc3ccccc23)cc1` the figure was < 0.2 µg/mL; with `COC(=O)c1ccc(NC(=O)C[n+]2ccccc2)cc1.[Cl-]`, > 46 µg/mL.
Next, `Cc1csc(NC(=O)c2ccncc2)n1`: 17.9 µg/mL (≈ 81.6 µM); `Cc1cc(C(=O)COC(=O)c2ccc(NC(=O)CC#N)cc2)c(C)n1-c1ccc(OC(F)F)cc1`: 1.7 µg/mL (≈ 3.53 µM).
Regarding `COc1ccc(C(=O)CCC(=O)Nc2ccc(Cl)cc2)cc1`, the kinetic solubility is < 0.7 µg/mL.
In the case of `O=C(O)c1cccnc1Sc1ccccc1Cl`, the kinetic solubility was 37.6 µg/mL (≈ 142 µM).
With `C=CCN1CCN(C(=O)c2cc3c(s2)CCCC3)CC1` the figure was > 43.6 µg/mL; with `Cc1cccc(Cc2nnc(CCC(=O)N(C)Cc3ccncc3C)o2)c1`, > 54.7 µg/mL.
`Cc1ccc2c(C)c(C(=O)NCCc3ccco3)oc2c1C` had a kinetic solubility of 2.8 µg/mL (≈ 9.42 µM).
Next, `Cc1ccccc1OCCC(=O)Nc1ccc2c(C)cc(=O)oc2c1`: 4.2 µg/mL (≈ 12.4 µM).
Next, `CCOc1ccccc1N1CN(Cc2ccccc2)CNC1=S`: > 49.1 µg/mL.
With `Cc1ccc(F)cc1NC(=O)C1C2CCC(O2)C1C(=O)O` (configuration not stated) the figure was > 44 µg/mL; with `O=S(=O)(c1ccc(F)cc1)N1CCc2ccccc2C1`, 1.2 µg/mL (≈ 4.12 µM); with `CN1CC(C(=O)c2ccc(Cl)cc2)C(c2ccc(N(C)C)cc2)C1` (configuration not stated), 47.1 µg/mL (≈ 137 µM).
For `CN(C)c1ccc(NC(=O)c2cnsn2)cc1`, the solubility (kinetic) turned out to be 30.2 µg/mL (≈ 122 µM).
Next, `COc1ccc2nc(NC(=O)c3ccccc3O)sc2c1`: 0.7 µg/mL (≈ 2.33 µM); `O=C(N/N=C/c1ccccc1O)C(=O)N1CCCCCC1`: > 43.4 µg/mL; `COC(=O)c1ccc(COC(=O)CNC(=O)c2cccs2)cc1`: > 50 µg/mL.
Next, `O=C(COC(=O)Cc1ccccc1)NCc1ccc2c(c1)OCO2`: > 49.1 µg/mL; `CCN1C(=O)C(O)(CC(=O)c2c(C)coc2C)c2ccccc21` (configuration not stated): > 47 µg/mL; `COc1ccc(NC(=O)c2ccc(C)cc2)c[n+]1[O-]`: > 38.7 µg/mL.
With `CC(=O)Nc1cccc(C(=O)NC(C)c2ccc(-n3ccnc3)cc2)c1` (configuration not stated) the figure was 45.5 µg/mL (≈ 131 µM); with `CN(CC(=O)Nc1ccc(Cl)c(C(F)(F)F)c1)C(=O)c1cnccn1`, 13.7 µg/mL (≈ 36.8 µM).
`CCCCn1cc2c(c1-c1cccc(C)c1)c(=O)n(C)c(=O)n2C` displayed a kinetic solubility of 14 µg/mL (≈ 43 µM).
Next, `COc1ccccc1/C=C1\C(=O)Nc2ccccc21`: 2 µg/mL (≈ 7.96 µM); `CC(C)OC(=O)CSc1nc(C(C)C)nc2ccccc12`: 2.1 µg/mL (≈ 6.9 µM); `COc1ccc(Br)cc1/C=C/C(=O)OCC(=O)NCCc1ccc(S(N)(=O)=O)cc1`: 13.8 µg/mL (≈ 27.7 µM).
With `CC(C)(C)OC(=O)NCCCCCO` the figure was > 30.5 µg/mL; with `CN1C2CCC1CC(NC(=O)c1cccc(C(F)(F)F)c1)C2` (configuration not stated), > 46.9 µg/mL; with `NC(=O)c1ccccc1NC(=O)c1ccc2ccccc2c1`, < 0.3 µg/mL.
Regarding `O=C(COC(=O)Cc1ccc(Br)cc1)NCc1cccs1`, the solubility (kinetic) turned out to be 11.8 µg/mL (≈ 32 µM).
In turn, `CSc1ccc(CNC(=O)c2c(C)noc2C)s1` yielded a kinetic solubility of 39.8 µg/mL (≈ 141 µM).
Next, `O=C(CNC(=O)c1ccccc1)NCC(c1ccco1)N1CCCC1` (configuration not stated): > 51.2 µg/mL.
Next, `O=C(COC(=O)Cn1cnc2ccccc21)Nc1ccc(OC(F)F)cc1`: > 56.3 µg/mL; `O=C(Nc1ccccc1)c1ccc(NC(=O)C2CC2)cc1`: 1.2 µg/mL (≈ 4.28 µM); `O=C(Nc1ccccn1)c1ccc(C(=O)c2ccccc2)cc1`: 21.6 µg/mL (≈ 71.4 µM).
